Source: ChEMBL document CHEMBL4619804, “Target-Based Identification and Optimization of 5-Indazol-5-yl Pyridones as Toll-like Receptor 7 and 8 Antagonists Using a Biochemical TLR8 Antagonist Competition Assay” (J Med Chem, 2020)

Assays:
Cytochrome P450 3A4 = Cytochrome P450 3A4 (Homo sapiens, UniProt P08684); assay: Inhibition of CYP3A4 (unknown origin); assay type: ADME
Toll-like receptor 1 = target: T1, Toll-like receptor 1 (Homo sapiens, UniProt Q15399); assay: Antagonist activity at TLR1 in human PBMC assessed as inhibition of Pam3CSK4-induced TNFalpha production preincubated for 30 mins followed by Pam3CSK4 addition and measured after 20 hrs by HTRF assay; assay type: cell-based
T1 sequence (Q15399 whole entry): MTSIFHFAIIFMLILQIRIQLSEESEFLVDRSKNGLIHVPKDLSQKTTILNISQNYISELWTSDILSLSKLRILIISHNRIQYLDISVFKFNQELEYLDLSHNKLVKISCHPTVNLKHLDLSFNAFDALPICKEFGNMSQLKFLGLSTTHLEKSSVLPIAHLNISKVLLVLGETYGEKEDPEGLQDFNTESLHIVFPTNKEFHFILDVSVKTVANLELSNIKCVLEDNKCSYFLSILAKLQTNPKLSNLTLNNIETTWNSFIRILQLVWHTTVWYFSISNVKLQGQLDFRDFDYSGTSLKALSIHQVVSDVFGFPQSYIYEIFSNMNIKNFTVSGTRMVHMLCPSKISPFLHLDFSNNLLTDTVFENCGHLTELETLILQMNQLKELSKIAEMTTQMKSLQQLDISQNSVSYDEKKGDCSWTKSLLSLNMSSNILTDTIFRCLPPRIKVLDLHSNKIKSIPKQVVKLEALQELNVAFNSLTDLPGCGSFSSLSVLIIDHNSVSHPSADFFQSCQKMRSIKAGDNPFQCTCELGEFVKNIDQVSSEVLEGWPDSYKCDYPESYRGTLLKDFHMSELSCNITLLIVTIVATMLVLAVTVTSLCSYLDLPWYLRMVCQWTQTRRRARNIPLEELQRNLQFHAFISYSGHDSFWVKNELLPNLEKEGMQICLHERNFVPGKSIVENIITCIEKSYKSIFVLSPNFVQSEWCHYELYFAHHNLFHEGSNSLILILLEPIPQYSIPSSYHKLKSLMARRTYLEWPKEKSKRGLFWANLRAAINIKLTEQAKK

Sequence of Cytochrome P450 3A4 (P08684 whole entry): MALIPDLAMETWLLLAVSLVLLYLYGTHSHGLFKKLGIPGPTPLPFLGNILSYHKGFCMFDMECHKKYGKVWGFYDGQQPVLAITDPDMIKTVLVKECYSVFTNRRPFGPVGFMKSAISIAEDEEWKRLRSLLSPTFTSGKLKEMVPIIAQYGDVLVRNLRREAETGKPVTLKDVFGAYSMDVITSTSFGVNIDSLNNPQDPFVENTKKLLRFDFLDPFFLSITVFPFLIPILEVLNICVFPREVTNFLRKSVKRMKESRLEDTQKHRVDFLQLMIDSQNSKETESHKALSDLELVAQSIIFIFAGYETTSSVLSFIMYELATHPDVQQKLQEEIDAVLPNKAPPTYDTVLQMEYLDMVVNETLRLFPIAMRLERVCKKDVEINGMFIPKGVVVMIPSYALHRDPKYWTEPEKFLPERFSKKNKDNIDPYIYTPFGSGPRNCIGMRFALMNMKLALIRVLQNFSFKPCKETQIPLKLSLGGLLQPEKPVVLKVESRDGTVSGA

IC50 (Cytochrome P450 3A4): > 25 µM
IC50 (Toll-like receptor 1): > 6.5 µM
SMILES: O=c1ccc(-c2cc(C(F)(F)F)c3nn([C@H]4CCNC[C@@H]4F)cc3c2)c2n1CCC2
